Experimental data from patent US20230140397A1, “ANTI-PSMA ANTIBODY-EXATECAN ANALOGUE CONJUGATE AND MEDICAL USE THEREOF” (JIANGSU HENGRUI PHARMACEUTICALS CO., LTD., priority 2020, published 2023).

What was measured:
Assay in all cases: Cell proliferation inhibition assay (ATP, CellTiter-Glo)
Type in all cases: cell-based
LNCaP cells = conditions: Homo sapiens, 120 h, 5 days, 4.5% FBS, read-out: Effect on cell killing (IC50)
Experimental: (§1) In this experiment, the content of ATP in the cells was detected, and the inhibitory effect of the PSMA ADC on the proliferation of cells (ATCC, LNCaP/CRL-1740, 22Rv1/CRL-2505 and PC-3/CRL-1435) was evaluated according to the IC50 values.
LNCaP cells were cultured in an RPMI-1640 medium containing 10% FBS, and passaged 2-3 times a week in a passage ratio of 1:3 or 1:6. During passaging, the medium was removed by pipetting, and the cell layer was rinsed with 5 mL of 0.25% pancreatin. Then the pancreatin was removed by pipetting, the cells were digested in an incubator for 3-5 min, and then a fresh medium was added to resuspend cells. To a 96-well culture plate were added 180 μL of cell suspension at a density of 2×10^3 cells/well and an RPMI-1640 medium containing 4.5% FBS, and to the periphery of the 96-well plate was only added the medium. The plate was incubated in an incubator for 24 h (37° C., 5% CO2).
Then 20 μL of the dilution was added to the above cell plate, and incubated in an incubator (37° C., 5% CO2) for 5 days. […] The chemiluminescence signal values were read on Victor3, and the data were processed using GraphPad software.

22Rv1 cells = conditions: Homo sapiens, 120 h; 22RV1, 5 days, 4.5% FBS; read-out: Effect on cell killing (IC50)
Experimental: as §1
(§2) Then 20 μL of the dilution was added to the above cell plate, and incubated in an incubator (37° C., 5% CO2) for 5 days. The compound 2-B (i.e., free toxin of 9-A) was diluted into a stock solution with DSMO, which was then prepared into an initial concentration of 200 μM with PBS, and diluted in a gradient dilution ratio of 1:6 with PBS to obtain 9 concentration points, and an additional 0 concentration point was set. Then 1 μL of the dilution was added to 20 μL of RPMI-1640, and the mixture was transferred to a 96-well culture plate, and incubated in an incubator (37° C., 5% CO2) for 5 days. In the 96-well culture plate, 80 μL of CellTiter-Glo reagent was added to each well, and the plate was incubated at room temperature for 10-15 min away from the light. The chemiluminescence signal values were read on Victor3, and the data were processed using GraphPad software.
22Rv1 cells were cultured in an RPMI-1640 medium containing 10% FBS, and passaged twice a week in a passage ratio of 1:3 or 1:6. During passaging, the medium was removed by pipetting, and the cell layer was rinsed with 5 mL of 0.25% pancreatin. […]

PC-3 cells = conditions: Homo sapiens, 120 h; PC-3, 5 days, 4.5% FBS; read-out: Effect on cell killing (IC50)
Experimental: as §1, §2
PC-3 cells were cultured in an F-12K medium containing 10% FBS, and passaged 2-3 times a week in a passage ratio of 1:3 or 1:6. During passaging, the medium was removed by pipetting, and the cell layer was rinsed with 5 mL of 0.25% pancreatin. […]

CC[C@@]1(O)C(=O)OCc2c1cc1n(c2=O)Cc2c-1nc1cc(F)c(C)c3c1c2[C@@H](NC(=O)[C@H](O)C1CC1)CC3 [Compound 2-B, (R)-2-cyclopropyl-N-((1S,9S)-9-ethyl-5-fluoro-9-hydroxy-4-methyl-10,13-dioxo-2,3,9,10,13,15-hexahydro-1H,12H-benzo[de]pyrano[3′,4′:6,7]indolizino[1,2-b]quinolin-1-yl)-2-hydroxyacetamide]
IC50 (LNCaP cells): 1.7 nM
IC50 (22Rv1 cells): 2.84 nM
IC50 (PC-3 cells): 8.33 nM
